Laboratory results: patent publication US7256006B2, “Method for determining the influence of a test substance on the heart activity of a vertebrate” (Multi Channel Systems MCS GmbH, priority 2003, dated 2007)
Where a name gives a salt, the structure may show the parent alone. Read-outs that look alike come from different tables or passages of the source. Blank lines part the entries; values can stand above or below the compound they belong to.

Key:
[1] = system: ventricular myocytes from chicken embryos; test: extracellular MEA field potential (FPdur) measurement on spontaneously beating heart cells; format: cell-based
Procedure: The heart muscle cells were obtained by trypsin digestion of the isolated ventricle of chicken embryos (10-12 days after fertilization). The heart was freed of blood vessels and atria. The cells were cultured in MEM medium supplemented with 10% fetal calf serum (FCS). One to two days before the measurement, the medium was replaced by standard Tyrode solution.
The standard Tyrode solution was then replaced by a Tyrode solution with 5 μM of a test substance and the change in FPdur was determined. Thereafter, the concentration of the test substance was increased in logarithmic steps. A measurement was now taken every 10 minutes.
In measurements with quinidine, 0.5% DMSO was added to the cell Tyrode since quinidine is not water-soluble. The control experiment was also carried out with DMSO here.
In these qualitative evaluations, i.e. comparison of data from the respective control experiment and the data derived from addition of the QT-modifying substance, possible changes in the heart rate were taken into account.
For the normalized case, the FPdur value was divided by the square root of the time span (in seconds) between two action potentials.

[2] = system: ventricular myocytes from chicken embryos; test: as above; format: cell-based; conditions: submicromolecular concentrations
[3] = literature reference; cited from earlier work

Compound: COc1ccc(CCN2CCC(Nc3nc4ccccc4n3Cc3ccc(F)cc3)CC2)cc1 [astemizol]
effect on the QT interval [1]: prolongating effect

Compound: Cc1cccc(CCN2CCC(C(=O)c3ccc(NS(C)(=O)=O)cc3)CC2)n1.Cl.Cl [E4031]
prolongation of the ventricular action potential [2]: over 90%

Compound: C=C[C@H]1C[N@@]2CC[C@H]1C[C@@H]2[C@@H](O)c1ccnc2ccc(OC)cc12 [quinidine]
QT prolongation (increase in FPdur) ([1]; FIG. 2B, indicated quinidine concentrations for 200 seconds): QT prolongation increasing with concentration
concentrations at which QT prolongations are shown in vitro in the MEA system ([1]; chicken, 10 min): 2000 to 7000 nM
effect on the QT interval ([1]; summary of substances tested by the inventors): prolongating effect
effect on QT [3]: QT-prolonging effect

Compound: CC(C)(C)c1ccc(C(O)CCCN2CCC(C(O)(c3ccccc3)c3ccccc3)CC2)cc1 (centres unmarked) [terfenadin]
effect on the QT interval [1]: prolongating effect

Compound: COc1cc(N)c(Cl)cc1C(=O)NC1CCN(CCCOc2ccc(F)cc2)CC1OC (centres unmarked) [cisapride]
effect on the QT interval [1]: prolongating effect

Compound: COc1cc2c(cc1OC)CC(=O)N(CCCN(C)C[C@H]1Cc3cc(OC)c(OC)cc31)CC2 [ivabradine]
effect on the QT interval [1]: No QT prolongation

Compound: CC(C)(C(=O)O)c1ccc(C(O)CCCN2CCC(C(O)(c3ccccc3)c3ccccc3)CC2)cc1 (centres unmarked) [fexofenafine]
effect on the QT interval [1]: prolongating effect

prolongation of the action potential [1]: about double
Compound: CC(C)NCC(O)c1ccc(NS(C)(=O)=O)cc1 (centres unmarked) [sotalol, N-[4-[1-hydroxy-2-(isopropylamino)ethyl]phenyl]methanesulfonamidehydrochloride]
effect on the QT interval [1]: prolongating effect

prolongation of the field potential [1]: did not prolong the field potential
Compound: CC1(C)Oc2ccc(S(=O)(=O)c3ccccc3)cc2[C@@H](N2CCCC2=O)[C@@H]1O [rilmakalim]
beating frequency ([1]; substance with so far unknown effect on QT interval): reduced the frequency
